≈ marks a conversion by molar mass, not a printed value.
How the values were obtained:
[1] = Assessment of solubility (McIlvaine buffers, 24 h shake, UPLC-UV); assay type: physicochemical; conditions: kinetic from dmso stock
Protocol: Solubility is measured by the following method.
100 uL, 10 mM DMSO stock solution of each compound is prepared in a 96 well plate format. The experiment is done in single determination at 3 pH values (2.2, 4.5 and 6.8). For each pH and one reference, 40 uL of each compound is needed.
McIlvaine pH 2.2: To 2.076 g citric acid monohydrate and 0.043 g Na2HPO4×2H2O add 100 ml deionized water
McIlvaine pH 4.5: To 1.166 g citric acid monohydrate and 1.585 g Na2HPO4×2H2O add 100 ml deionized water
McIlvaine pH 6.8: To 0.476 g citric acid monohydrate and 2.753 g Na2HPO4×2H2O add 100 ml deionized water
With a suitable liquid handling device (Multipette® or a liquid handler) 390 uL of each buffer solution and 10 uL of compound is added to each well of a 96 deep well plate. The plates are covered firmly and shaken for 24 h on an over head shaker (at 54 RPM) at room temperature. The DMSO content in the final buffer is 2.5% v/v.
After 24 h the plates are centrifuged to remove droplets on the lid before opening (for ˜5 min at 2500 RPM).
The filtration is done under vacuum with Millipore 96 well filter plate. Filtrate is collected in a deep well plate and transferred to a suitable plate for UPLC analysis.
The reference plate is prepared by adding 10 uL of compound to 390 uL of 50:50 acetonitrile/water in a 96 deep well plate and transferred to a suitable plate for UPLC analysis. Wells are checked visually for precipitation, any presence noted under comments in reported results.
The samples are measured with UPLC-UV using the chromatographic method described below.
Waters Empower®2 software is used for generating Sample Sets (according to the plate layout), Sample Set Methods and Instrument Methods.
One Sample Set comprises the methods for three 96 well plates (one reference plate and two sample plates, and includes one Sample Set Method and one Instrument Method).
3. Data Processing and Analysis
The UV chromatograms collected at 254 nm are integrated and processed.
It is assumed that the compound is completely dissolved in the reference solution (50:50 acetonitrile/water)

[2] = target: T1, human soluble guanylate cyclase alpha 1 and beta 1 subunits (sGC) (Homo sapiens, UniProt Q02108+Q02153); test: sGC cellular activator assay (cGMP, HTRF); assay type: cell-based; conditions: CHO cells stably expressing human sGC alpha 1/beta 1, preincubated with 40 microM ODQ; cGMP readout; assay run with and without 50% human serum, Table 2 does not say which
T1 construct: expressed in transfected cells; host or cells: Chinese hamster ovary (CHO) cells, stably transfected
T1 sequence (Q02108 1-690): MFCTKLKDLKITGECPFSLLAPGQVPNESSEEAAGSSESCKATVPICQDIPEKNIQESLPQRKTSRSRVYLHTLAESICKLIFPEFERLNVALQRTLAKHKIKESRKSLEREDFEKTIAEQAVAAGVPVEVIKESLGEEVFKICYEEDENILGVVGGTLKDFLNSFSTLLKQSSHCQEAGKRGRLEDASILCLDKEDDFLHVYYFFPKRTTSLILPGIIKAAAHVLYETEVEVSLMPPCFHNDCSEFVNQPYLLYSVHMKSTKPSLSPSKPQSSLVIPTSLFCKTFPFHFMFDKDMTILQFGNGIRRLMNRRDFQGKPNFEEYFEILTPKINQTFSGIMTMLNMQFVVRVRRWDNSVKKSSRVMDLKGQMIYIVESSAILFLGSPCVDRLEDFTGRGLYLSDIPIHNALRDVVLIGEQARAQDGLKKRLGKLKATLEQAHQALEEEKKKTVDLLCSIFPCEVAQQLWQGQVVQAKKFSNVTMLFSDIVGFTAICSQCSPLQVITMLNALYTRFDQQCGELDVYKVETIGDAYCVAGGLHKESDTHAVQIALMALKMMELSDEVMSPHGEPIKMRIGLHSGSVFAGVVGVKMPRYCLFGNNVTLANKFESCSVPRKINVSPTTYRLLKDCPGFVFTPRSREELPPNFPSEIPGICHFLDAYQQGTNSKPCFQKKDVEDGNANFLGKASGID
T1 sequence (Q02153 1-619): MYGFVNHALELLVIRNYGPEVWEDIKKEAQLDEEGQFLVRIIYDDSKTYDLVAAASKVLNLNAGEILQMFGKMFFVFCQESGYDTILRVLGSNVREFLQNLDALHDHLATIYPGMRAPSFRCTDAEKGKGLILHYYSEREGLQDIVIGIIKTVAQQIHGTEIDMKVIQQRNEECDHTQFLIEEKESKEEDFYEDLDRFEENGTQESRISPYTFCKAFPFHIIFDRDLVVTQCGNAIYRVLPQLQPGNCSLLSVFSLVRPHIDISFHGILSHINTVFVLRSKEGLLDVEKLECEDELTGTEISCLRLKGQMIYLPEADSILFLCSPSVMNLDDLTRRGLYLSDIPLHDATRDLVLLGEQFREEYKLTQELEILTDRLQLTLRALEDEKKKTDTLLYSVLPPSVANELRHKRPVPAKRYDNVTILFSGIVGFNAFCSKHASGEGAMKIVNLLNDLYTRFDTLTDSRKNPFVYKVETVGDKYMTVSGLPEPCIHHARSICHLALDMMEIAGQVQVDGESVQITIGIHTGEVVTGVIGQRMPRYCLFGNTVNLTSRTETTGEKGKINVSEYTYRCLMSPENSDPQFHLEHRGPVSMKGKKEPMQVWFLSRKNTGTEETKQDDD
Protocol: The sGC cellular activator assay is performed in the presence and absence of 50% human serum (HS) using Chinese hamster ovary cells that have been stably transfected to express the human soluble guanylate cyclase alpha 1 and beta 1 subunits (sGC). Cells are preincubated with 40 microM 1H-[1,2,4]oxadiazolo[4,3-a]quinoxalin-1-one (ODQ), an sGC inhibitor, for one h in buffer containing 0.1% bovine serum albumin and 3-isobutyl-1-methylxanthine (IBMX). Concentration response curves are prepared for test compounds in DMSO. An intermediate dilution of the compounds is performed in either buffer containing IBMX or type AB HS containing IBMX. Diluted compounds are added to cells and they are incubated at room temperature for thirty min. cGMP is measured using a CisBio homogeneous time resolved fluorescence kit and the EC50 is calculated for each compound.
Representative compounds of the present invention were tested for activity the above assay. Preferred compounds have an EC50 of <1,000 nM in the above assay and more preferred compounds have an EC50<200 nM.

Row | Compound | solubility at 24 h ([1]; pH 2.2, aqueous buffer) [µg/mL] | solubility at 24 h ([1]; pH 4.5, aqueous buffer) [µg/mL] | solubility at 24 h ([1]; pH 6.8, aqueous buffer) [µg/mL] | EC50 [2] [nM]
1 | COc1c(C(=O)O)cnn1-c1cccc(-c2cccc(Cl)c2OCc2ccc3c(c2)CCN(C2COC2)C3)n1 [Compound 7] | 110 (≈ 201 µM) | 77 (≈ 141 µM) | 91 (≈ 166 µM) | 32
2 | COc1c(C(=O)O)cnn1-c1cccc(-c2cccc(C)c2OCc2ccc3c(c2)CCN(C2COC2)C3)n1 [Compound 8] | 110 (≈ 209 µM) | 82 (≈ 156 µM) | 98 (≈ 186 µM) | 42
3 | COc1c(C(=O)O)cnn1-c1cccc(-c2cccc(C(F)(F)F)c2OCc2ccc3c(c2)CCN(C2COC2)C3)n1 [Compound 9] | 94 (≈ 162 µM) | 70 (≈ 121 µM) | 82 (≈ 141 µM) | 59
4 | COc1c(C(=O)O)cnn1-c1cccc(-c2cccc(C)c2OCc2ccc3c(c2)C(C)(C)CN(C2COC2)C3)n1 [Compound 10] | 94 (≈ 169 µM) | 50 (≈ 90.1 µM) | 73 (≈ 132 µM) | 16
5 | COc1c(C(=O)O)cnn1-c1cccc(-c2cccc(C)c2OCc2ccc3c(c2)CCN(CC(F)(F)F)C3)n1 [Compound 11, 5-methoxy-1-(6-{3-methyl-2-[2-(2,2,2-trifluoro-ethyl)-1,2,3,4-tetrahydro-isoquinolin-6-ylmethoxy]-phenyl}-pyridin-2-yl)-1H-pyrazole-4-carboxylic acid] | 23 (≈ 41.6 µM) | < 0.1 | 80 (≈ 145 µM) | 17
6 | COc1c(C(=O)O)cnn1-c1cccc(-c2cccc(C)c2OCc2ccc3c(c2)CCN(CC2(C)COC2)C3)n1 [Compound 12] | 110 (≈ 198 µM) | 90 (≈ 162 µM) | 92 (≈ 166 µM) | 26
7 | COc1c(C(=O)O)cnn1-c1cccc(-c2cccc(C)c2OCc2ccc3c(c2)CCN(C(C)C)C3)n1 [Compound 13] | 100 (≈ 195 µM) | 84 (≈ 164 µM) | 87 (≈ 170 µM) | 180
8 | COc1c(C(=O)O)cnn1-c1cccc(-c2cccc(C)c2OCc2ccc3c(c2)CCN(CC(C)(C)C)C3)n1 [Compound 14] | 110 (≈ 203 µM) | 82 (≈ 152 µM) | 76 (≈ 141 µM) | 18
9 | CCOc1c(C(=O)O)cnn1-c1cccc(-c2cccc(C)c2OCc2ccc3c(c2)CCN(CC2CC(=O)N(C)C2)C3)n1 (stereo not drawn) [Compound 97, 5-ethoxy-1-(6-{3-methyl-2-[2-(1-methyl-5-oxo-pyrrolidin-3-ylmethyl)-1,2,3,4-tetrahydro-isoquinolin-6-ylmethoxy]-phenyl}-pyridin-2-yl)-1H-pyrazole-4-carboxylic acid] | 91 (≈ 153 µM) | 72 (≈ 121 µM) | 77 (≈ 129 µM) | 67
10 | COc1c(C(=O)O)cnn1-c1cccc(-c2ccc(C)cc2OCc2ccc3c(c2)CCN(C2CCOCC2)C3)n1 [Compound 98] | 150 (≈ 270 µM) | 110 (≈ 198 µM) | 99 (≈ 178 µM) | 270
11 | COc1c(C(=O)O)cnn1-c1cccc(-c2ccc(C)cc2OCc2ccc3c(c2C)CCN(C2CCOCC2)C3)n1 [Compound 99] | 150 (≈ 264 µM) | 120 (≈ 211 µM) | 110 (≈ 193 µM) | 160
12 | COc1c(C(=O)O)cnn1-c1cccc(-c2cccc(C)c2OCc2ccc3c(c2)CCCN(C2CCOCC2)C3)n1 [Compound 100] | 110 (≈ 193 µM) | 88 (≈ 155 µM) | 97 (≈ 171 µM) | 170
13 | CCOc1c(C(=O)O)cnn1-c1cccc(-c2cccc(C)c2OCc2ccc3c(c2)CCN(CC2CCCO2)C3)n1 (stereo not drawn) [Compound 101, 5-ethoxy-1-(6-{3-methyl-2-[2-(tetrahydro-furan-2-ylmethyl)-1,2,3,4-tetrahydro-isoquinolin-6-ylmethoxy]-phenyl}-pyridin-2-yl)-1H-pyrazole-4-carboxylic acid] | 90 (≈ 158 µM) | 73 (≈ 128 µM) | 74 (≈ 130 µM) | 110
14 | COc1c(C(=O)O)cnn1-c1cccc(-c2cccc(C)c2OCc2ccc3c(c2)CCN([C@H]2CC[C@]4(CCCO4)CC2)C3)n1 [Compound 102] | 99 (≈ 163 µM) | 81 (≈ 133 µM) | 82 (≈ 135 µM) | 110
15 | COc1c(C(=O)O)cnn1-c1cccc(-c2cccc(C)c2OCc2ccc3c(c2)CCN([C@H]2CC[C@@]4(CCCO4)CC2)C3)n1 [Compound 103] | 96 (≈ 158 µM) | 78 (≈ 128 µM) | 81 (≈ 133 µM) | 110
16 | Cc1cccc(-c2cccc(-n3ncc(C(=O)O)c3OC(C)C)n2)c1OCc1ccc2c(c1C)CCN(C1CCOCC1)C2 [Compound 104] | 110 (≈ 184 µM) | 93 (≈ 156 µM) | 97 (≈ 163 µM) | 31
17 | COc1c(C(=O)O)cnn1-c1cccc(-c2cccc(C)c2OCc2ccc3c(c2C)CCN([C@H]2CCOC2)C3)n1 [Compound 105] | 93 (≈ 168 µM) | 72 (≈ 130 µM) | 75 (≈ 135 µM) | 17
18 | COc1c(C(=O)O)cnn1-c1cccc(-c2cccc(C)c2OCc2ccc3c(c2C)CCN([C@@H]2CCOC2)C3)n1 [Compound 106] | 88 (≈ 159 µM) | 69 (≈ 124 µM) | 73 (≈ 132 µM) | 27
19 | CCOc1c(C(=O)O)cnn1-c1cccc(-c2cccc(C)c2OCc2ccc3c(c2)CCN([C@H]2CCOC2)C3)n1 [Compound 110] | 130 (≈ 234 µM) | 96 (≈ 173 µM) | 120 (≈ 216 µM) | 45
20 | Cc1cccc(-c2cccc(-n3ncc(C(=O)O)c3OC(C)C)n2)c1OCc1ccc2c(c1)CCN([C@H]1CCOC1)C2 [Compound 111] | 87 (≈ 153 µM) | 69 (≈ 121 µM) | 75 (≈ 132 µM) | 99
21 | CCOc1c(C(=O)O)cnn1-c1cccc(-c2cccc(C)c2OCc2ccc3c(c2)CCN([C@@H]2CCOC2)C3)n1 [Compound 112] | 110 (≈ 198 µM) | 78 (≈ 141 µM) | 94 (≈ 169 µM) | 110

Reference: patent publication US8906904B2, “Alkoxy pyrazoles as soluble guanylate cyclase activators” (Boehringer Ingelheim International GmbH, priority 2012, dated 2014)
